Data taken from patent publication US20240408169A1 (priority 2023, published 2024).
*1 amine or outer side, *2 acyl side, *3 side chain or, on linkers, in order; H or OH if unused. Where a SMILES comes first, the peptide text is derived from it. Bridges are numbered along the chain shown (N, C = ends). [ ]: non-standard residue; d: D form. The star is where a group is joined. NMe(hhhLys) = CN([C@@H](CCCCCCCN[*:3])C(=O)[*:2])[*:1]; Cyclopropanecarbonyl(1-CF3) = O=C(C1(C(F)(F)F)CC1)*; NMePhe(2,5-Cl2) = CN[C@@H](Cc1cc(Cl)ccc1Cl)C(=O)O; Pro(trans-4-F) = O=C(O)[C@@H]1C[C@@H](F)CN1; X155 = C[C@@](O)(C(=O)*)C(F)(F)F; Gly(cPr) = N[C@H](C(=O)O)C1CC1

Columns and labels:
CyclinA2/CDK2 = target: T1, CyclinA2/CDK2 (Homo sapiens, UniProt P20248); assay: Fluorescence Polarization (FP) competitive binding assay, Cyclin A2/Cdk2; details: 8 nM Cyclin A2/Cdk2, 2 nM FAM probe; average of 2-3 independent experiments; read-out: Cyclin A FP IC50;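 note: plates equilibrated two hours at room temperature before polarization reading, IC50 fitted from eight-concentration compound titration curves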
T1 construct: purchased CRELUX Protein Services

CyclinB1/CDK1 = target: T2, CyclinB1/CDK1 (Homo sapiens, UniProt P14635); assay: Fluorescence Polarization (FP) competitive binding assay, Cyclin B1/Cdk1; details: 10 nM Cyclin B1/Cdk1, 2 nM FAM probe; average of 2-3 independent experiments; read-out: Cyclin B FP IC50;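 note: fluorescence polarization read after equilibration at room temperature, with IC50 taken from serially diluted dose-response curves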
T2 construct: purchased Eurofins, discovery 14-450

CyclinE1/CDK2 = target: T3, CyclinE1/CDK2 (Homo sapiens, UniProt P24864); assay: Fluorescence Polarization (FP) competitive binding assay, Cyclin E1/Cdk2; details: 10 nM Cyclin E1/Cdk2, 2 nM FAM probe; average of 2-3 independent experiments; read-out: Cyclin E FP IC50;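 note: readings taken after two-hour equilibration at room temperature in HEPES buffer with NaCl, DTT, NP-40 and BSA, IC50 fitted from eight-concentration serial dilution series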
T3 construct: purchased Eurofins, discovery 14-475

NCI-H1048 cells = assay: MTT proliferation assay, NCI-H1048; assay type: cell-based; details: 5 days compound exposure, 1:3 serial dilution starting at 10 μM;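 note: Dose-response in 96-well plates over 8 or 10 concentration points, with exposure spanning 3-4 cell doublings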
OVCAR3 cells = assay: MTT proliferation assay, OVCAR3; assay type: cell-based; details: 5 days compound exposure, 1:3 serial dilution starting at 10 μM;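 note: compound given as an 8- or 10-point series, one day after plating, with exposure covering roughly 3-4 cell doublings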

| Structure (SMILES) | IC50 (CyclinA2/CDK2) [µM] | IC50 (CyclinB1/CDK1) [µM] | IC50 (CyclinE1/CDK2) [µM] | GI50 (NCI-H1048 cells) [µM] | GI50 (OVCAR3 cells) [µM] |
| --- | --- | --- | --- | --- | --- |
| CC(C)C[C@@H]1NC(=O)[C@@H](N(C)C(=O)[C@@H](NC(=O)[C@@H]2C[C@@H](F)CN2C(=O)C2(C(F)(F)F)CCC2)C2CC2)CC=CCCCCNC(=O)[C@H](Cc2cc(Cl)cnc2OC2CC2)N(C)C1=O (single isomer, unassigned) [Example 107-P2] | 0.11 | 0.02 | 0.18 | 0.19 | 0.32 |
| Cc1nnc(-c2ccc(Cl)cc2C[C@H]2C(=O)NCCCCC=CC[C@H](N(C)C(=O)[C@@H](NC(=O)[C@@H]3C[C@@H](F)CN3C(=O)C3(C(F)(F)F)CCC3)C3CC3)C(=O)N[C@@H](CC(C)C)C(=O)N2C)o1 (single isomer, unassigned) [Example 117-P1] | 0.08 | 0.02 | 0.34 | 0.23 | 0.18 |
| Cc1nnc(-c2ccc(Cl)cc2C[C@H]2C(=O)NCCCCC=CC[C@H](N(C)C(=O)[C@@H](NC(=O)[C@@H]3C[C@@H](F)CN3C(=O)C3(C(F)(F)F)CCC3)C3CC3)C(=O)N[C@@H](CC(C)C)C(=O)N2C)o1 (single isomer, unassigned) [Example 117-P2] | 0.06 | 0.02 | 0.16 | 0.09 | 0.06 |
| Cc1nnc(-c2ccc(Cl)cc2C[C@H]2C(=O)NCCCCC=CC[C@H](N(C)C(=O)[C@@H](NC(=O)[C@@H]3C[C@@H](F)CN3C(=O)C3(C(F)(F)F)CC(F)(F)C3)C3CC3)C(=O)N[C@@H](CC(C)C)C(=O)N2C)o1 (single isomer, unassigned) [Example 118-P1] | 0.11 | 0.02 | 0.74 | 0.18 | 0.17 |
| Cc1nnc(-c2ccc(Cl)cc2C[C@H]2C(=O)NCCCCC=CC[C@H](N(C)C(=O)[C@@H](NC(=O)[C@@H]3C[C@@H](F)CN3C(=O)C3(C(F)(F)F)CC(F)(F)C3)C3CC3)C(=O)N[C@@H](CC(C)C)C(=O)N2C)o1 (single isomer, unassigned) [Example 118-P2] | 0.06 | 0.02 | 0.3 | 0.05 | 0.05 |
| CC(C)C[C@@H]1NC(=O)[C@@H](N(C)C(=O)[C@@H](NC(=O)[C@@H]2C[C@@H](F)CN2C(=O)C2(C(F)(F)F)CCC2)C2CC2)CC=CCCCCNC(=O)[C@H](Cc2cc(Cl)ccc2Oc2ncccn2)N(C)C1=O (single isomer, unassigned) [Example 156-P1] | 0.89 | 0.02 | 0.83 | 0.48 | 0.53 |
| CC(C)C[C@@H]1NC(=O)[C@@H](N(C)C(=O)[C@@H](NC(=O)[C@@H]2C[C@@H](F)CN2C(=O)C2(C(F)(F)F)CCC2)C2CC2)CC=CCCCCNC(=O)[C@H](Cc2cc(Cl)ccc2Oc2ncccn2)N(C)C1=O (single isomer, unassigned) [Example 156-P2] | 0.35 | 0.02 | 0.24 | 0.09 | 0.1 |
| CC[C@H](NC(=O)[C@@H]1C[C@@H](F)CN1C(=O)C1(C(F)(F)F)CC1)C(=O)N[C@H]1CC=CCCCCNC(=O)[C@H](Cc2cc(Cl)ccc2Cl)N(C)C(=O)[C@H](CC(C)C)NC1=O [Example 2] | 0.11 | 0.02 | 0.1 | 0.38 | 0.41 |
| CC(C)C[C@@H]1NC(=O)[C@@H](NC(=O)CNC(=O)[C@@H]2C[C@@H](F)CN2C(=O)C2(C(F)(F)F)CC2)CC=CCCCCNC(=O)[C@H](Cc2cc(Cl)ccc2Cl)N(C)C1=O [Example 3] | 0.62 | 0.02 | 0.68 | 0.46 | 0.72 |
| CC(C)C[C@@H]1NC(=O)[C@@H](NC(=O)[C@@H](NC(=O)[C@@H]2C[C@@H](F)CN2C(=O)C2(C(F)(F)F)CC(F)(F)C2)C2CC2)CC=CCCCCNC(=O)[C@H](Cc2cc(Cl)ccc2Cl)N(C)C1=O [Example 4] | 0.09 | 0.02 | 0.1 | 0.12 | 0.06 |
| CC(C)C[C@@H]1NC(=O)[C@@H](NC(=O)[C@@H](NC(=O)[C@@H]2C[C@@H](F)CN2C(=O)C2(C(F)(F)F)CC(F)(F)C2)C2CC2)CCCCCCCNC(=O)[C@H](Cc2cc(Cl)ccc2Cl)N(C)C1=O [Example 8] | 0.03 | 0.02 | 0.1 | 0.02 | 0.03 |
| CC(C)C[C@@H]1NC(=O)[C@@H](N(C)C(=O)[C@@H](NC(=O)[C@@H]2C[C@@H](F)CN2C(=O)C2(C(F)(F)F)CC2)C2CC2)CCCCCCCNC(=O)[C@H](Cc2cc(Cl)ccc2Cl)N(C)C1=O [Example 9] ({Cyclopropanecarbonyl(1-CF3)}-[Pro(trans-4-F)][Gly(cPr)][NMe(hhhLys)]L[NMePhe(2,5-Cl2)]; lactam 3-C) | 0.25 | 0.02 | 0.4 | 0.08 | 0.11 |
| CC(C)C[C@@H]1NC(=O)[C@@H](N(C)C(=O)[C@@H](NC(=O)[C@@H]2C[C@@H](F)CN2C(=O)[C@@](C)(O)C(F)(F)F)C2CC2)CCCCCCCNC(=O)[C@H](Cc2cc(Cl)ccc2Cl)N(C)C1=O [Example 10] (X155-[Pro(trans-4-F)][Gly(cPr)][NMe(hhhLys)]L[NMePhe(2,5-Cl2)]; lactam 3-C) | 0.1 | 0.02 | 0.12 | 0.02 | 0.03 |
| CC(C)C[C@@H]1NC(=O)[C@@H](NC(=O)[C@@H](NC(=O)[C@@H]2C[C@@H](F)CN2C(=O)C2(C(F)(F)F)CC2)C2CC2)CC=CCCCCN(C)C(=O)[C@H](Cc2cc(Cl)ccc2Cl)N(C)C1=O [Example 11] | 0.17 | 0.02 | 0.1 | 0.08 | 0.21 |
| CC(C)C[C@@H]1NC(=O)[C@@H](NC(=O)[C@@H](NC(=O)[C@@H]2C[C@@H](F)CN2C(=O)C2(C(F)(F)F)CC(F)(F)C2)C2CC2)CC=CCCCCN(C)C(=O)[C@H](Cc2cc(Cl)ccc2Cl)N(C)C1=O [Example 12] | 0.06 | 0.02 | 0.1 | 0.03 | 0.04 |
| CC[C@H](NC(=O)[C@@H]1C[C@@H](F)CN1C(=O)C1(C(F)(F)F)CC1)C(=O)N[C@H]1CC=CCCCCN(C)C(=O)[C@H](Cc2cc(Cl)ccc2Cl)N(C)C(=O)[C@H](CC(C)C)NC1=O [Example 13] | 0.1 | 0.02 | 0.1 | 0.07 | 0.24 |
| CC(C)C[C@@H]1NC(=O)[C@@H](N(C)C(=O)[C@@H](NC(=O)[C@@H]2C[C@@H](F)CN2C(=O)C2(C(F)(F)F)CC(F)(F)C2)C2CC2)CC=CCCCCNC(=O)[C@H](Cc2cc(Cl)ccc2C2=CCN(S(C)(=O)=O)CC2)N(C)C1=O [Example 23] | 0.12 | 0.02 | 5.47 | 0.18 | 0.21 |
| CC(C)C[C@@H]1NC(=O)[C@@H](N(C)C(=O)[C@@H](NC(=O)[C@@H]2C[C@@H](F)CN2C(=O)C2(C(F)(F)F)CC(F)(F)C2)C2CC2)CC=CCCCCNC(=O)[C@H](Cc2cc(Cl)ccc2C2=CC[C@H](O)CC2)N(C)C1=O [Example 24] | 0.06 | 0.02 | 1.6 | 0.09 | 0.17 |
